Source: the CheMixHub ionic liquid set

Assay: xn = mol fraction of the nth substance listed
Details: 308.15 K, 101 kPa

CCCCCCCCCCCCCCCC[n+]1ccccc1.[Cl-] + C[C@@H](O)[C@H](N)C(=O)O + O
Details	electrical conductivity [S/m]
x2 = 0, x1 = 5.4e-07	0.000222
x2 = 0, x1 = 9e-07	0.00029
x2 = 0, x1 = 1.62e-06	0.0004
x2 = 0, x1 = 2.34e-06	0.000465
x2 = 0, x1 = 2.88e-06	0.000581
x2 = 0, x1 = 3.78e-06	0.000705
x2 = 0, x1 = 4.5e-06	0.000794
x2 = 0, x1 = 5.59e-06	0.000937
x2 = 0, x1 = 6.85e-06	0.00106
x2 = 0, x1 = 7.93e-06	0.001222
x2 = 0, x1 = 9.01e-06	0.001438
x2 = 0, x1 = 1.009e-05	0.00159
x2 = 0, x1 = 1.117e-05	0.001701
x2 = 0, x1 = 1.442e-05	0.00209
x2 = 0, x1 = 1.55e-05	0.00219
x2 = 0, x1 = 1.766e-05	0.00237
x2 = 0, x1 = 1.982e-05	0.00248
x2 = 0, x1 = 2.18e-05	0.00259
x2 = 0, x1 = 2.397e-05	0.00264
x2 = 0, x1 = 2.595e-05	0.00278
x2 = 0, x1 = 2.991e-05	0.00297
x2 = 0, x1 = 3.406e-05	0.00314
x2 = 0, x1 = 3.784e-05	0.00328
x2 = 0, x1 = 4.162e-05	0.00342
x2 = 0, x1 = 4.541e-05	0.00356
x2 = 0, x1 = 4.919e-05	0.00369
x2 = 0, x1 = 5.099e-05	0.00375
x2 = 0, x1 = 5.982e-05	0.00403
x2 = 0, x1 = 6.829e-05	0.00432
x2 = 0, x1 = 7.64e-05	0.00454
x2 = 0, x1 = 8.415e-05	0.00477
x2 = 0, x1 = 9.171e-05	0.00497
x2 = 0, x1 = 9.892e-05	0.00516
x2 = 0, x1 = 0.0001058	0.00533
x2 = 0, x1 = 0.0001124	0.0055
x2 = 0, x1 = 0.0001189	0.00565
x2 = 2.018e-05, x1 = 5.4e-07	0.000282
x2 = 2.018e-05, x1 = 9e-07	0.00035
x2 = 2.018e-05, x1 = 1.62e-06	0.000431
x2 = 2.018e-05, x1 = 2.34e-06	0.000514
x2 = 2.018e-05, x1 = 2.88e-06	0.000652
x2 = 2.018e-05, x1 = 3.78e-06	0.000768
x2 = 2.018e-05, x1 = 4.51e-06	0.00084
x2 = 2.018e-05, x1 = 5.59e-06	0.001003
x2 = 2.018e-05, x1 = 6.67e-06	0.00115
x2 = 2.018e-05, x1 = 7.93e-06	0.00127
x2 = 2.018e-05, x1 = 9.01e-06	0.00139
x2 = 2.018e-05, x1 = 1.009e-05	0.001517
x2 = 2.018e-05, x1 = 1.117e-05	0.00165
x2 = 2.018e-05, x1 = 1.334e-05	0.00188
x2 = 2.018e-05, x1 = 1.55e-05	0.00214
x2 = 2.018e-05, x1 = 1.766e-05	0.0023
x2 = 2.018e-05, x1 = 1.964e-05	0.00249
x2 = 2.018e-05, x1 = 2.181e-05	0.00259
x2 = 2.018e-05, x1 = 2.379e-05	0.00271
x2 = 2.018e-05, x1 = 2.595e-05	0.00282
x2 = 2.018e-05, x1 = 2.992e-05	0.00299
x2 = 2.018e-05, x1 = 3.388e-05	0.00317
x2 = 2.018e-05, x1 = 3.766e-05	0.00332
x2 = 2.018e-05, x1 = 4.163e-05	0.00348
x2 = 2.018e-05, x1 = 4.523e-05	0.00361
x2 = 2.018e-05, x1 = 4.902e-05	0.00375
x2 = 2.018e-05, x1 = 5.082e-05	0.00383
x2 = 2.018e-05, x1 = 5.965e-05	0.00411
x2 = 2.018e-05, x1 = 6.812e-05	0.00438
x2 = 2.018e-05, x1 = 7.623e-05	0.0046
x2 = 2.018e-05, x1 = 8.398e-05	0.00483
x2 = 2.018e-05, x1 = 9.136e-05	0.00502
x2 = 2.018e-05, x1 = 9.857e-05	0.0052
x2 = 2.018e-05, x1 = 0.0001054	0.00538
x2 = 2.018e-05, x1 = 0.0001121	0.00553
x2 = 2.018e-05, x1 = 0.0001186	0.00568
x2 = 0.0002, x1 = 5.4e-07	0.000209
x2 = 0.0002, x1 = 9e-07	0.000279
x2 = 0.0002, x1 = 1.62e-06	0.000384
x2 = 0.0002, x1 = 2.35e-06	0.000481
x2 = 0.0002, x1 = 2.89e-06	0.000615
x2 = 0.0002, x1 = 3.79e-06	0.000744
x2 = 0.0002, x1 = 4.51e-06	0.000835
x2 = 0.0002, x1 = 5.59e-06	0.000986
x2 = 0.0002, x1 = 6.67e-06	0.001137
x2 = 0.0002, x1 = 7.94e-06	0.00127
x2 = 0.0002, x1 = 9.02e-06	0.001403
x2 = 0.0002, x1 = 1.01e-05	0.00155
x2 = 0.0002, x1 = 1.118e-05	0.00168
x2 = 0.0002, x1 = 1.335e-05	0.00196
x2 = 0.0002, x1 = 1.551e-05	0.00219
x2 = 0.0002, x1 = 1.75e-05	0.00237
x2 = 0.0002, x1 = 1.966e-05	0.00251
x2 = 0.0002, x1 = 2.183e-05	0.00264
x2 = 0.0002, x1 = 2.381e-05	0.00275
x2 = 0.0002, x1 = 2.58e-05	0.00286
x2 = 0.0002, x1 = 2.995e-05	0.00304
x2 = 0.0002, x1 = 3.391e-05	0.00321
x2 = 0.0002, x1 = 3.77e-05	0.00335
x2 = 0.0002, x1 = 4.149e-05	0.0035
x2 = 0.0002, x1 = 4.528e-05	0.00364
x2 = 0.0002, x1 = 4.889e-05	0.00376
x2 = 0.0002, x1 = 5.069e-05	0.00382
x2 = 0.0002, x1 = 5.953e-05	0.0041
x2 = 0.0002, x1 = 6.801e-05	0.00437
x2 = 0.0002, x1 = 7.612e-05	0.00458
x2 = 0.0002, x1 = 8.388e-05	0.00481
x2 = 0.0002, x1 = 9.146e-05	0.00499
x2 = 0.0002, x1 = 9.849e-05	0.00517
x2 = 0.0002, x1 = 0.0001055	0.00533
x2 = 0.0002, x1 = 0.000112	0.0055
x2 = 0.0002, x1 = 0.0001185	0.00565
x2 = 0.0009181, x1 = 2.391e-05	0.00276
x2 = 0.0009181, x1 = 2.608e-05	0.00285
x2 = 0.0009181, x1 = 3.007e-05	0.00304
x2 = 0.0009181, x1 = 3.405e-05	0.0032
x2 = 0.0009181, x1 = 3.804e-05	0.00337
x2 = 0.0009181, x1 = 4.184e-05	0.00351
x2 = 0.0009181, x1 = 4.564e-05	0.00365
x2 = 0.0009181, x1 = 4.926e-05	0.00379
x2 = 0.0009181, x1 = 5.108e-05	0.00385
x2 = 0.0009181, x1 = 5.995e-05	0.00413
x2 = 0.0009181, x1 = 6.846e-05	0.00439
x2 = 0.0009181, x1 = 7.661e-05	0.00463
x2 = 0.0009181, x1 = 8.44e-05	0.00485
x2 = 0.0009181, x1 = 9.2e-05	0.00505
x2 = 0.0009181, x1 = 9.907e-05	0.00523
x2 = 0.0009181, x1 = 0.0001061	0.0054
x2 = 0.0009181, x1 = 0.0001128	0.00556
x2 = 0.0009181, x1 = 0.0001192	0.00571
x2 = 0.0009182, x1 = 5.4e-07	0.000316
x2 = 0.0009182, x1 = 9.1e-07	0.000383
x2 = 0.0009182, x1 = 1.63e-06	0.00045
x2 = 0.0009182, x1 = 2.35e-06	0.000543
x2 = 0.0009182, x1 = 2.9e-06	0.000651
x2 = 0.0009182, x1 = 3.8e-06	0.000745
x2 = 0.0009182, x1 = 4.53e-06	0.000847
x2 = 0.0009182, x1 = 5.61e-06	0.00102
x2 = 0.0009182, x1 = 6.88e-06	0.001307
x2 = 0.0009182, x1 = 7.97e-06	0.001432
x2 = 0.0009182, x1 = 9.06e-06	0.00156
x2 = 0.0009182, x1 = 1.014e-05	0.00169
x2 = 0.0009182, x1 = 1.123e-05	0.001816
x2 = 0.0009182, x1 = 1.34e-05	0.00202
x2 = 0.0009182, x1 = 1.558e-05	0.00226
x2 = 0.0009182, x1 = 1.775e-05	0.0024
x2 = 0.0009182, x1 = 1.974e-05	0.00254
x2 = 0.0009182, x1 = 2.192e-05	0.00266
